{"source": "patent US8008283B2", "about": "“Methods and compositions for the treatment of neuropsychiatric disorders” (Neurotherapeutics Pharma, Inc., priority 2005, dated 2011)", "key": {"rats": {"tested_on": "rats", "assay": "fear potentiated startle (FPS) test in rats", "format": "in vivo, rat", "protocol": "Twenty-four rats received a 30 min period of habituation to the FPS apparatus. Twenty-four hours later, baseline startle amplitudes were collected. The rats were then divided into three matched groups based on baseline startle amplitudes. […] Groups 1 and 2 therefore consisted of 8 rats each, with Group 3 consisting of […]. Following baseline startle amplitude collection, 20 light/shock pairings were delivered on two sessions over two consecutive days (i.e., 10 light/shock pairings per day). […] Immediately following injections, startle amplitudes were assessed during startle alone trials and startle plus fear (light followed by startle) trials. Fear potentiated startle (light+startle amplitudes minus startle alone amplitudes) was compared between the treatment groups.\nAnimals were trained and tested in four identical stabilimeter devices (Med-Associates). Briefly, each rat was placed in a small Plexiglas cylinder. The floor of each stabilimeter consisted of four 6-mm-diameter stainless steel bars spaced 18 mm apart through which shock can be delivered. Cylinder movements result in displacement of an accelerometer where the resultant voltage is proportional to the velocity of the cage displacement. Startle amplitude is defined as the maximum accelerometer voltage that occurs during the first 0.25 sec after the startle stimulus is delivered. […] Each stabilimeter was enclosed in a ventilated, light-, and sound-attenuating box. All sound level measurements were made with a Precision Sound Level Meter. The noise of a ventilating fan attached to a sidewall of each wooden box produced an overall background noise level of 64 dB. The startle stimulus was a 50 ms burst of white noise (5 ms rise-decay time) generated by a white noise generator. The visual conditioned stimulus employed was illumination of a light bulb adjacent to the white noise source. The unconditioned stimulus was a 0.6 mA foot shock with duration of 0.5 sec, generated by four constant-current shockers located outside the chamber. The presentation and sequencing of all stimuli were under the control of the microcomputer.\nFPS procedures consisted of 5 days of testing; during days 1 and 2 baseline startle responses were collected, days 3 and 4 light/shock pairings were delivered, day 5 testing for fear potentiated startle was conducted.\nMatching: On the first two days all rats were placed in the Plexiglas cylinders and 3 min later presented with 30 startle stimuli at a 30 sec interstimulus interval.\nTraining: On the following 2 days, rats were placed in the Plexiglas cylinders. […] The shock was delivered during the last 0.5 sec of the 3.7 sec CSs at an average intertrial interval of 4 min (range, 3-5 min).\nThese initial startle stimuli were used to again habituate the rats to the acoustic startle stimuli. Thirty seconds after the last of these stimuli, each animal received 60 startle stimuli with half of the stimuli presented alone (startle alone trials) and the other half presented 3.2 sec after the onset of the 3.7 sec CS (CS-startle trials). All startle stimuli are presented at a mean 30 sec interstimulus interval, randomly varying between 20 and 40 sec.\nMeasures: The treatment groups were compared on the difference in startle amplitude between CS-startle and startle-alone trials (fear potentiation).\nThe therapeutic efficacy of several bumetanide analogs in alleviating anxiety was examined using the fear potentiated startle (FPS) test in rats as described above."}, "hippocampal slices, CA1": {"tested_on": "hippocampal slices, CA1", "assay": "comparison of low-[Cl-]o and furosemide on blockade of high-[K+]o-induced epileptiform activity, CA1 field (Example 78)", "format": "cell-based, rat", "description": "In all of the following experiments, [Cl^−]o was reduced by equimolar replacement of NaCl with Na^+-gluconate. Gluconate was used rather than other anion replacements for several reasons. […]; U.S. Pat. No. 5,902,732). Third, formate, acetate, and proprionate generate weak acids when employed as Cl^− substitutes and lead to a prompt fall in intracellular pH; gluconate remains extracellular and has not been reported to induce intracellular pH shifts. Fourth, for purposes of comparison we wished to use the same anion replacement that had been used in previous studies examining the effects of low-[Cl^−]o on activity-evoked changes of the ECS.\nSprague-Dawley adult rats were prepared as previously described. Briefly, transverse hippocampal slices, 400 μm thick, were cut using a vibrating cutter. Slices typically contained the entire hippocampus and subiculum. […] Normal ACSF contained (in mmol/l): 124 NaCl, 3 KCl, 1.25 NaH2PO4, 1.2 MgSO4, 26 NaHCO3, 2 CaCl2, and 10 dextrose.\nSharp-electrodes filled with 4 M potassium acetate were used for intracellular recordings from CA1 pyramidal cells. […] For stimulation of the Schaffer collateral pathway, a small monopolar electrode was placed on the surface of the slice midway between areas CA1 and CA3. […] AxoScope software (Axon Instruments Inc.) on a PC-computer was used for off-line analyses of data. […]"}, "hippocampal slices": {"tested_on": "hippocampal slices", "conditions": "Pearce, Neuron 10:189, 1993; cited from earlier work"}, "rat hippocampal slices": {"tested_on": "rat hippocampal slices", "assay": "spontaneous epileptiform burst discharges across a spectrum of in vitro models in hippocampal slices (Example 69)", "format": "cell-based", "conditions": "for spontaneous burst discharges, CA3 and CA1: high-K+ (10 mM) medium", "protocol": "Sprague-Dawley rats (males and females; 25-35 days old) were decapitated, the top of the skull was rapidly removed, and the brain chilled with ice-cold oxygenated slicing medium. […] A hemisphere of brain containing hippocampus was blocked and glued (cyanoacrylic adhesive) to the stage of a Vibroslicer (Frederick Haer, Brunsick, Me.). […] In the recording chamber, the slices were perfused with oxygenated recording medium at 34-35° C. All animal procedures were conducted in accordance with NIH and University of Washington animal care guidelines.\nIn most slice experiments, simultaneous extracellular field electrode recordings were obtained from CA1 and CA3 areas. A bipolar tungsten stimulating electrode was placed on the Schaffer collaterals to evoke synaptically-driven field responses in CA1. Stimuli consisted of 100-300 μsec duration pulses at an intensity of four times the population-spike threshold. After discharges were evoked by a 2 second train of such stimuli delivered at 60 Hz."}, "human patients": {"tested_on": "human patients", "conditions": "Haglund and Hochman, J. Neurophysiol. 2005; cited from earlier work"}}, "data": [{"smiles": "NS(=O)(=O)c1cc(C(=O)O)c(NCc2ccco2)cc1Cl", "note": "[furosemide]", "values": [{"measurement": "difference score one week after treatment", "setting": "rats; compared with vehicle alone, FIG. 10", "value": "higher difference score"}, {"measurement": "statistical difference from vehicle in difference score one week after treatment", "setting": "rats; error bars large for vehicle-treated animals", "value": "possibly a small difference"}, {"measurement": "difference score (startle alone - fear potentiated startle) on the test day", "setting": "rats; i.v. in DMSO, furosemide 100 mg/kg, bumetanide 70 mg/kg, compared with vehicle alone, FIG. 8", "value": "statistically significantly lower difference score"}, {"measurement": "response to electrical stimulation of the Schaffer collaterals", "setting": "hippocampal slices, CA1; after the spontaneous bursting had been blocked", "value": "elicited hyperexcited responses"}, {"measurement": "temporal sequence of effects on high-[K+]o-induced bursting, CA1 field", "setting": "hippocampal slices, CA1; furosemide 2.5 and 5 mM, [K+]o 12 mM", "value": "an initial brief period of increased amplitude of field activity, and then blockade (reversible) of spontaneous field activity"}, {"measurement": "latency of block of a component of the inhibitory currents", "setting": "hippocampal slices", "value": "< 15", "unit": "min"}, {"measurement": "latency of block of bursting", "setting": "rat hippocampal slices; 0-Ca++ experiments, 5 mM furosemide", "value": "15 to 20", "unit": "min"}, {"measurement": "spontaneous burst discharges", "setting": "rat hippocampal slices; 200-300 μM 4-aminopyridine", "value": "blocked"}, {"measurement": "anticonvulsant resistant bursts, entorhinal cortex", "setting": "rat hippocampal slices; 3 hours of perfusion with 0-Mg++ medium, one hour after addition of furosemide", "value": "blocked"}, {"measurement": "spontaneous bursting activity in both CA1 and CA3", "setting": "rat hippocampal slices; all experiments", "value": "reversibly blocked"}, {"measurement": "latency of block of bursting", "setting": "rat hippocampal slices; all other protocols, 2.5 mM furosemide", "value": "20 to 60", "unit": "min"}, {"measurement": "spontaneous burst discharges", "setting": "rat hippocampal slices; bicuculline at 50-100 μM", "value": "blocked"}, {"measurement": "spontaneous burst discharges, CA3 and CA1", "setting": "rat hippocampal slices; 2.5 mM furosemide, after 15 minutes of perfusion", "value": "increased in magnitude"}, {"measurement": "spontaneous burst discharges, CA3 and CA1", "setting": "rat hippocampal slices; 2.5 mM furosemide, after 45 minutes of perfusion", "value": "blocked in a reversible manner"}, {"measurement": "spontaneous burst discharges", "setting": "rat hippocampal slices; removal of calcium plus extracellular chelation (0-Ca++)", "value": "blocked"}, {"measurement": "spontaneous burst discharges", "setting": "rat hippocampal slices; removal of magnesium (0-Mg++), 1 hours perfusion", "value": "blocked"}, {"measurement": "epileptic activity and normal brain activity in humans", "setting": "human patients", "value": "able to block epileptic activity in humans while not affecting normal brain activity"}]}]}
